Earlier results on one compound are cited in patent publication US20060159628A1, “Nanoparticulate benzothiophene formulations” (Elan Pharma International Limited, priority 2004, published 2006).

The test system of series [1] is uterine tissue. The conditions noted are these: ovariectomized (OVX) rats.
The subject of series [2] is MCF-7 cells. The conditions noted are these: cell culture.

As for `Cl.O=C(c1ccc(OCCN2CCCCC2)cc1)c1c(-c2ccc(O)cc2)sc2cc(O)ccc12` [Raloxifene hydrochloride, methanone, [6-hydroxy-2-(4-hydroxyphenyl)benzo[b]thien-3-yl]-[4-[2-(1-piperidinyl)ethoxy]phenyl]-, hydrochloride], the solubility in water entry is on record as “very slightly soluble”. Besides, the uterotrophic response result in series [1] is given as “only minimal uterotrophic response”. For the same compound, the “estrogen-dependent proliferation in MCF-7 cells” value in series [2] is on record as “inhibits estrogen-dependent proliferation”.
